The target of data set [1] is T1, FTase (Homo sapiens, UniProt P49356).
T1 construct: FTase and GGTase I activities from 60,000×g supernatants of human Burkitt lymphoma (Daudi) cells; endogenous in cells; host or cells: human Burkitt lymphoma (Daudi) cells, 60,000xg supernatant (partially purified)
Briefly: Peptidomimetics farnesylation assay (silica gel TLC). Format: biochemical. The method, then:
The ability of human Burkitt lymphoma (Daudi) FTase to farnesylate peptides and peptidomimetics was determined as described previously (34, 35). Briefly, 25 μl of reaction mixture containing 50 μg of 60,000×g supernatants and 20 μM peptidomimetic in 50 mM Tris, pH 7.5, 50 μM ZnCl2, 20 mM KCl, 3 mM MgCl2, 1 mM DTT and 0.2% octylβ-D-glucoside was incubated for 30 minutes at 37° C., then spotted onto silica gel G TLC sheets (20×20 cm, Brinkmann Instruments), and developed with n-propanol/5 N ammonium hydroxide/water (6:1:1). The dried sheets were sprayed with En^3 Hance (DuPont NEN) and exposed to x-ray film for detection of [^3 H] farnesylated products.

For data set [2], the target named is T1, FTase. Nature of the data set: FTase activity assay: transfer of [3H]farnesyl from FPP to recombinant H-Ras-CVLS, Daudi 60,000xg supernatant. In kind it is biochemical.
The subject of data set [3] is Ras processing. Nature of the data set: Ras processing assay in EJ3 / Ras transformed 3T3 cells (FIG. 16A). In kind it is cell-based. As to the method: EJ3 cells were treated with peptidomimetics or vehicle for 20-24 h. Cells were lysed in lysis buffer (10 mM Na2 HPO4, pH 7.25, 150 mM NaCl, 0.1% sodium dodecyl sulfate, 1% Triton X-100, 12 mM sodium deoxycholate, 1 mM NaF, 0.2% NaN3, 2 mM PMSF, 25 μg/ml leupeptin) and the lysates were cleared by spinning at 13,000 rpm for 15 minutes. Ras protein was immunoprecipitated overnight at 4° C. with 50 μg of anti-Ras antibody (Y13-259; hybridoma from ATCC, Rockville, Md.) along with 30 μl Protein A-agarose goat anti-rat IgG complex (oncogene Science, Uniondale, N.Y.). Immunoprecipitates were washed 4 times with lysis buffer and the bound proteins were released by heating for 5 minutes in 40 μl SDS-PAGE sample buffer and subsequently electrophoresed on a 12.5% SDS-PAGE.

The next data set deals with T2, GGTase I (Homo sapiens, UniProt P53609).
T2 construct: FTase and GGTase I activities from 60,000×g supernatants of human Burkitt lymphoma (Daudi) cells; endogenous in cells; host or cells: human Burkitt lymphoma (Daudi) cells, 60,000xg supernatant (partially purified)
Briefly: GGTase I activity assay: transfer of [3H]geranylgeranyl to recombinant H-Ras-CVLL, Daudi 60,000xg supernatant. Format: biochemical.

In a further data set the target is T3, rat brain FTase (Rattus norvegicus, UniProt Q02293).
T3 construct: 50 nM towards rat brain FTase purified to homogeneity; from tissue; host or cells: rat brain
Briefly: Inhibition of rat brain FTase purified to homogeneity. Format: biochemical.

For data set [4], the system named is Rap1A processing. Nature of the data set: Rap1A processing assay in EJ3 / Ras transformed 3T3 cells (FIG. 16B). In kind it is cell-based. As to the method: For Rap1A processing assays, 50 μg of cell lysates were electrophoresed as described above for Ras processing and transferred to nitrocellulose. These membranes were then blocked with 5% milk in Tris-buffered saline, pH 8.0, containing 0.5% Tween-20 and probed with anti-Rap1A (1 μg/ml in 5% milk/TBS-T; Santa Cruz Biotechnology, Santa Cruz, Calif.). Antibody reactions were visualized using peroxidase-conjugated goat anti-rabbit IgG (Oncogene) and ECL chemiluminescence as described above.

For data set [5], the target named is FTase. Conditions: published; cited from earlier work.
Data set [6] relates to Calu-1 human lung carcinoma. From the text: (§1) Calu-1 (Panel A) and NCI-H810 cells (Panel B) were purchased from ATCC and grown in McCoy's 5A medium in 10% FBS (Fetal Bovine Serum) and RPMI 1640 in 10% FBS, respectively. The cells were harvested, resuspended in PBS and injected s.c. into the right and left flank of 8 week old female nude mice (10^7 cells/flank). Nude mice (Harlan Sprague Dawley, Indianapolis, Ind.) were maintained in accordance with the Institutional Animal Care and Use Committee (IACUC) procedures and guidelines. On day 32 after s.c. implantation of tumors, animals were dosed i.p. with 0.2 ml once daily for 36 days. […] The tumor volumes were determined by measuring the length (l) and the width (w) and calculating the volume (V=(l)×(w)^2 /2). Data are presented as the average volume of eight tumors in each group for each cell line. Statistical significance between control and treated groups were evaluated by using student t test (*P<0.05).
(§2) In this model, tumors from two human lung carcinoma cell lines are implanted subcutaneously. One of these (Calu-1) harbors a K-Ras oncogenic mutation and has a deletion of the tumor suppressor gene p53. The other human lung carcinoma ([…]) has no Ras mutations.

In data set [7] the test system is Rap1A processing. Conditions: 100 mg/kg. As to the method:
(§3) A. Antitumor efficacy was carried out as described in FIG. 3 except that animals were randomly assigned to four groups each of 4 mice each (2 tumors per mouse). […] B. Ras processing was carried out 5 hours after the last treatement on day 17. Tumors were extracted from the animals, tissumized, and lysed in lysis buffer as described in FIG. 1. Lysates (25 μg) were electrophoresed on a 12.5% SDS-PAGE and immunoblotted with anti-Ras antibody Y13-238 as described previously. The blots were then reprobed with anti-Rap1A antibody (Santa Cruze Biotechnologies, Santa Cruz, Calif.).
(§4) The tumor sizes at the end of 17 days were 2490 mm^3 for saline, 1793 mm^3 for 10 mg/kg, 1226 mm^3 for 50 mg/kg and 624 mm^3 for 100 mg/kg treated animals. […] Tumors from control animals contained only fully processed Ras which migrates faster in SDS-PAGE gels (FIG. 11B). […] Thus, the extent of tumor growth inhibition correlated with the extent of inhibition of Ras processing.

For data set [8], the system named is Ras processing. Conditions: 10 to 100 mg/kg, 5 hrs after last injection. The method, then:
as §3, §4

Data set [9] relates to H-RasF transformed NIH 3T3 cells. As to the method: as §3, §4
The test system of data set [10] is Raf-transformed NIH 3T3 cells. Conditions: 50 mg/kg once daily.
Source text in data set [11]: as §2
The test system of data set [12] is NCI-H810 human lung carcinoma. Conditions: 50 mg/kg once daily, 14 days of treatment.
Source text: as §1

Entries after “also recorded” stand apart in the source; their conditions may differ. Where two headings read alike, the source gives them in different places.

Here are results for three molecules from patent US5965539A, “Inhibitors of prenyl transferases” (Univeristy of Pittsburgh, priority 1996, dated 1999).

As usually defined, the IC50 is the midpoint of a concentration-inhibition curve.

T2 sequence (P53609 whole entry): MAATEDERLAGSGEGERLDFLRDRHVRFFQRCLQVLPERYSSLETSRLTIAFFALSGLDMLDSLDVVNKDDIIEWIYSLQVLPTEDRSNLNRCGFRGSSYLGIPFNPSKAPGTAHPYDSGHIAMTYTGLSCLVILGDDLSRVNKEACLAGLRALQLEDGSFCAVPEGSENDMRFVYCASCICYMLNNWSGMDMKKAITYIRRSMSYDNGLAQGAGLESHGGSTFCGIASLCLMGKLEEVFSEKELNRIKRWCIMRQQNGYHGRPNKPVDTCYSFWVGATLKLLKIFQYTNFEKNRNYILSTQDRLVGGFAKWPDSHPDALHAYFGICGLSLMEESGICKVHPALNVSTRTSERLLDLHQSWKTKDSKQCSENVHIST
T1 sequence (P49356 whole entry): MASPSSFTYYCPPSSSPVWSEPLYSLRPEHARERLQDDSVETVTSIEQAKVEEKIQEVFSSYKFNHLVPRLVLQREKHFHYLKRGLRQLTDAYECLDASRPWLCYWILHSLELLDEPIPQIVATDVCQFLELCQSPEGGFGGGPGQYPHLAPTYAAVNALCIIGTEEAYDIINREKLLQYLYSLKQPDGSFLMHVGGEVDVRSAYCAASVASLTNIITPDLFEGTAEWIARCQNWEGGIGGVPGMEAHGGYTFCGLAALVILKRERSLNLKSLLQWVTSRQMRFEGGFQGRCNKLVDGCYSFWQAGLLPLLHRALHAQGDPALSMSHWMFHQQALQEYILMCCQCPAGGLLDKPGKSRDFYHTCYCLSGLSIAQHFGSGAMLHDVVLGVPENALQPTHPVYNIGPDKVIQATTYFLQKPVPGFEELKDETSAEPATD

In the case of `N[C@@H](CS)CNc1ccc(-c2cccc(C(=O)O)c2)cc1` [FTI-265, 4-N-[2(R)-amino-3-mercaptopropyl]amino-3'-carboxybiphenyl], the “farnesylation by FTase” value at FTase [1] (FIG. 15, listed as 4) is “prevented farnesylation; also recorded: not substrates for farnesylation”. The Substrate result at FTase [1] (Table 4, substrate for farnesylation, TLC) is “no”. Also, the “selectivity for FTase over GGTase I” value at FTase [2] is 877 fold. Besides, on FTase [2] (Table 4, FTase over GGTase I), the Selectivity is 877. The IC50 on FTase [2] (Table 4, read-out: FTase IC50) was 114 nM; on GGTase I (Table 4, read-out: GGTase-I IC50) it was 100000 nM; on GGTase I (read-out: GGTase I IC50) it was 100000 nM; on rat brain FTase, 50 nM. For the same molecule, the “lowest concentration that inhibited Ras processing” value with Ras processing [3] stood at 50 µM. Besides, in the data set on Ras processing [3] (100 μM), the “inhibition of Ras processing” value is reported as “potently inhibit Ras processing”. In the data set on Rap1A processing [4], the “inhibition of Rap1A processing” value was “not able to inhibit Rap1A geranylgeranylation”.

Turning to “Cys-Ile-Phe-Met (CIFM; printed: Cys-Ile-Phe-Met)”, the half-maximal inhibitory concentration (IC50) at FTase [5] was 30 nM.

Take `CSCC[C@H](NC(=O)c1ccc(NC[C@@H](N)CS)cc1-c1ccccc1)C(=O)O` [FTI-276, 4-N-[2(R)-Amino-3-mercaptopropyl]amino-2-phenylbenzoyl methionine]: the average tumor size in data set [6] (50 mg/kg i.p. once daily, 64 days from tumor implantation) is recorded as 113 mm^3; in data set [12], 815 mm^3. The “tumor growth of Calu-1” value in data set [6] (50 mg/kg once daily) is on record as “essentially blocked tumor growth”. Moreover, the “Rap1A processing in tumors” value with Rap1A processing [7] is recorded as “did not inhibit Rap1A processing”. Further, the “Ras processing in tumors” value with Ras processing [8] is “progressive accumulation of unprocessed Ras”. Further, the “tumor size at the end of 17 days” value was determined as 1793 mm^3 in data set [9] (10 mg/kg), 1226 mm^3 in data set [9] (50 mg/kg) and 624 mm^3 in [9] (100 mg/kg). Moreover, the “tumor growth of H-RasF transformed NIH 3T3 cells” value in [9] (50 mg/kg once daily) is on record as “inhibited tumor growth”. Also, the “growth of Raf-transformed NIH 3T3 cells” value in data set [10] was “had no effect”. The IC50 on GGTase I (Table 1, read-out: GGTase I IC50) was determined as 57 nM; at GGTase I (Table 5, read-out: In Vitro IC50 GGTase I) it was 50 nM; on GGTase I (read-out: GGTase I IC50), 50 nM. In addition, the weight loss entry in data set [11] (50 mg/kg once daily for 36 days) is “no weight loss was observed”. In addition, the toxicity entry in data set [11] (dose escalated to 180 mg/kg once daily) is “lack of toxicity”.
